Laboratory results: patent US20050112573A1, “Method of detecting toxic substance” (priority 2001, published 2005)

System: yeast genes (level of expressed mRNA)
Test: DNA chip analysis of expressed mRNA of yeast genes after 2 h culture with a toxic chemical substance
Type: cell-based, Saccharomyces cerevisiae S288C
Settings: for The level of expressed mRNA in the presence of chemical substance/ (ratio to absence of chemical substance): stress protein genes, DNA chip; for The level of expressed mRNA in the presence of chemical substance/ in its absence, gene YPR184W: yeast gene YPR184W
Procedure: Yeast (Saccharomyces cerevtisiae S288C (α SUC2mal mel gap2 CUP1)) were cultured at 25° C. on YPD medium (yeast extract 1%, polypepton 2%, glucose 2%). One of toxic chemical substances was added to the cell at logarithmic growth phase, and the cell was further cultured for two hours. Cell was cultured without any chemical substance in the same condition, and was used as control. Concentrations of the chemical substances were defined to inhibit the growth of the yeast but not lead to death.
After the completion of cultivation, the culture was centrifuged to collect the cells. To the cells, sodium acetate buffer (50 mM sodium acetate, 10 mM EDTA, 1% SDS) was added, and the mixture was shaken at 65° C. for five minutes, followed by returning to room temperature, and obtaining the supernatant, which procedure was repeated two times. To the supernatant, ½ amount of a solution of phenol/chloroform was added, and the mixture was centrifuged to give a supernatant, which was added with an equal amount of chloroform, and the mixture was centrifuged to give a supernatant. To the supernatant, an equal amount of isopropanol containing 0.3 M sodium acetate was added, and the mixture was allowed to stand at room temperature for 30 minutes, after which the mixture was centrifuged to give a sediment of the whole RNAs. Seventy % ethanol was added to the sediment, and the mixture was again centrifuged to give a sediment, which was then dried and dissolved in water. mRNA was isolated from the whole RNAs as followings. In view of the fact that a poly A chain is attached to the 3′ terminus of mRNA, a polynucleotide having a poly T structure which was immobilized on the surface of latex beads was used to trap the mRNA, and then the mRNA was washed and eluted with spine column (Oligotex-dT30<Super>mRNA Purification Kit, Takara). Reverse transcription of the mRNA was conducted with a reverse transcriptase (Super Script II Reverse Transcriptase; catalogue No. 18064-014, GibcoBRL) using fluorescence-labeled nucleotides to give cDNAs that were introduced with Cy3-dUTP or Cy5-dUTP during the reverse transcription.
The labeled cDNAs were dissolved in TE buffer (10 mM Tris-HCl/1 mM EDTA, pH8.0), and the solution was dropped on the DNA chip containing the whole genes of yeast (DNA Chip Research Inc. Japan) so that the cDNAs were hybridized on the DNA chip at 65° C. for over 12 hours. The fluoresces intensity of the DNA chip was read with a scanner, and the ratio relative to the fluorescence intensity resulting from the absence of chemical substance was estimated as the following, which is shown in Tables 1 to 9: [formula]
In the Tables, “Intensity” indicated in the rightmost column is a value of the level of expressed mRNA of each gene in control cells as divided by the average level of the expressions of the whole genes.

CCCCC[C@H](O)CC(=O)CCc1ccc(O)c(OC)c1 [(13), gingerol]
The level of expressed mRNA in the presence of chemical substance/The level of expressed mRNA in the absence of chemical substance (yeast gene YNL006W): 2.3
The level of expressed mRNA in the presence of chemical substance/The level of expressed mRNA in the absence of chemical substance (yeast gene YNL007C): 2.1
The level of expressed mRNA in the presence of chemical substance/ (in its absence), gene YNL025C (yeast gene YNL025C, ratio of DNA chip fluorescence intensity to that without chemical substance): 1.3
The level of expressed mRNA in the presence of chemical substance/ (ratio to absence of chemical substance) (yeast gene YNL064C): 1.1
The level of expressed mRNA in the presence of chemical substance/ (ratio to absence), gene YNL073W (yeast gene YNL073W, mitochondria-located protein genes, 2 h culture with chemical): 1.2
The level of expressed mRNA in the presence of chemical substance/The level of expressed mRNA in the absence of chemical substance (yeast gene YNL093W): 2.2
The level of expressed mRNA in the presence of chemical substance/ (in its absence), gene YNL192W (yeast gene YNL192W, ratio of DNA chip fluorescence intensity to that without chemical substance): 2.7
The level of expressed mRNA in the presence of chemical substance/The level of expressed mRNA in the absence of chemical substance (yeast gene YNL333W): 2.2
The level of expressed mRNA in the presence of chemical substance/The level of expressed mRNA in the absence of chemical substance (yeast gene YNR010W): 2.8
The level of expressed mRNA in the presence of chemical substance/The level of expressed mRNA in the absence of chemical substance (yeast gene YNR069C): 3.4
The level of expressed mRNA in the presence of chemical substance/ (in its absence), gene YNR072W (yeast gene YNR072W, ratio of DNA chip fluorescence intensity to that without chemical substance): 1.5
The level of expressed mRNA in the presence of chemical substance/ (ratio to absence of chemical substance) (yeast gene YNR076W): 0.9
The level of expressed mRNA in the presence of chemical substance/The level of expressed mRNA in the absence of chemical substance (yeast gene YOL013C): 1.8
The level of expressed mRNA in the presence of chemical substance/ (ratio to absence), gene YOL096C (yeast gene YOL096C, mitochondria-located protein genes, 2 h culture with chemical): 1.4
The level of expressed mRNA in the presence of chemical substance/ (in its absence), gene YOL096C (yeast gene YOL096C, ratio of DNA chip fluorescence intensity to that without chemical substance): 1.4
The level of expressed mRNA in the presence of chemical substance/ (in its absence), gene YOL108C (yeast gene YOL108C, ratio of DNA chip fluorescence intensity to that without chemical substance): 1.3
The level of expressed mRNA in the presence of chemical substance/ (in its absence), gene YOL116W (yeast gene YOL116W, ratio of DNA chip fluorescence intensity to that without chemical substance): 0.8
The level of expressed mRNA in the presence of chemical substance/ (ratio to absence of chemical substance) (yeast gene YOL161C): 1.2
The level of expressed mRNA in the presence of chemical substance/The level of expressed mRNA in the absence of chemical substance (yeast gene YOL164W): 3.4
The level of expressed mRNA in the presence of chemical substance/ (ratio to absence of chemical substance) (yeast gene YOR008C): 0.9
The level of expressed mRNA in the presence of chemical substance/ (ratio to absence of chemical substance) (yeast gene YOR009W): 0.4
The level of expressed mRNA in the presence of chemical substance/ (ratio to absence of chemical substance) (yeast gene YOR010C): 0.5
The level of expressed mRNA in the presence of chemical substance/The level of expressed mRNA in the absence of chemical substance (yeast gene YOR036W): 2.1
The level of expressed mRNA in the presence of chemical substance/ (in its absence), gene YOR103C (yeast gene YOR103C, ratio of DNA chip fluorescence intensity to that without chemical substance): 0.8
The level of expressed mRNA in the presence of chemical substance/The level of expressed mRNA in the absence of chemical substance (yeast gene YOR117W): 2.3
The level of expressed mRNA in the presence of chemical substance/The level of expressed mRNA in the absence of chemical substance (yeast gene YOR124C): 2.1
The level of expressed mRNA in the presence of chemical substance/The level of expressed mRNA in the absence of chemical substance (yeast gene YOR132W): 2.5
The level of expressed mRNA in the presence of chemical substance/The level of expressed mRNA in the absence of chemical substance (yeast gene YOR157C): 2.4
The level of expressed mRNA in the presence of chemical substance/ (in its absence), gene YOR180C (yeast gene YOR180C, ratio of DNA chip fluorescence intensity to that without chemical substance): 0.9
The level of expressed mRNA in the presence of chemical substance/The level of expressed mRNA in the absence of chemical substance (yeast gene YOR181W): 1.2
The level of expressed mRNA in the presence of chemical substance/The level of expressed mRNA in the absence of chemical substance (yeast gene YOR185C): 2.2
The level of expressed mRNA in the presence of chemical substance/The level of expressed mRNA in the absence of chemical substance (yeast gene YOR198C): 1.8
The level of expressed mRNA in the presence of chemical substance/ (in its absence), gene YOR251C (yeast gene YOR251C, ratio of DNA chip fluorescence intensity to that without chemical substance): 1.0
The level of expressed mRNA in the presence of chemical substance/The level of expressed mRNA in the absence of chemical substance (yeast gene YOR259C): 1.8
The level of expressed mRNA in the presence of chemical substance/The level of expressed mRNA in the absence of chemical substance (yeast gene YOR261C): 2.5
The level of expressed mRNA in the presence of chemical substance/The level of expressed mRNA in the absence of chemical substance (yeast gene YOR288C): 2.4
The level of expressed mRNA in the presence of chemical substance/ (ratio to absence), gene YOR316C (yeast gene YOR316C, mitochondria-located protein genes, 2 h culture with chemical): 1.6
The level of expressed mRNA in the presence of chemical substance/ (in its absence), gene YOR348C (yeast gene YOR348C, ratio of DNA chip fluorescence intensity to that without chemical substance): 1.1
The level of expressed mRNA in the presence of chemical substance/The level of expressed mRNA in the absence of chemical substance (yeast gene YOR355W): 1.1
The level of expressed mRNA in the presence of chemical substance/ (in its absence), gene YOR363C (yeast gene YOR363C, ratio of DNA chip fluorescence intensity to that without chemical substance): 1.3
The level of expressed mRNA in the presence of chemical substance/The level of expressed mRNA in the absence of chemical substance (yeast gene YOR383C): 1.2
The level of expressed mRNA in the presence of chemical substance/ (ratio to absence), gene YPL040C (yeast gene YPL040C, mitochondria-located protein genes, 2 h culture with chemical): 1.0
The level of expressed mRNA in the presence of chemical substance/ (ratio to absence of chemical substance) (yeast gene YPL059W): 0.7
The level of expressed mRNA in the presence of chemical substance/The level of expressed mRNA in the absence of chemical substance (yeast gene YPL089C): 1.3
The level of expressed mRNA in the presence of chemical substance/The level of expressed mRNA in the absence of chemical substance (yeast gene YPL109C): 1.8
The level of expressed mRNA in the presence of chemical substance/ (ratio to absence), gene YPL134C (yeast gene YPL134C, mitochondria-located protein genes, 2 h culture with chemical): 1.0
The level of expressed mRNA in the presence of chemical substance/ (ratio to absence of chemical substance) (yeast gene YPL140C): 0.9
The level of expressed mRNA in the presence of chemical substance/ (in its absence), gene YPL148C (yeast gene YPL148C, ratio of DNA chip fluorescence intensity to that without chemical substance): 0.6
The level of expressed mRNA in the presence of chemical substance/The level of expressed mRNA in the absence of chemical substance (yeast gene YPL149W): 2.3
The level of expressed mRNA in the presence of chemical substance/The level of expressed mRNA in the absence of chemical substance (yeast gene YPL154C): 3.1
The level of expressed mRNA in the presence of chemical substance/ (ratio to absence of chemical substance) (yeast gene YPL194W): 1.4
The level of expressed mRNA in the presence of chemical substance/ (ratio to absence of chemical substance) (yeast gene YPR005C): 0.7
The level of expressed mRNA in the presence of chemical substance/The level of expressed mRNA in the absence of chemical substance (yeast gene YPR103W): 2.8
The level of expressed mRNA in the presence of chemical substance/The level of expressed mRNA in the absence of chemical substance (yeast gene YPR108W): 2.6
The level of expressed mRNA in the presence of chemical substance/ (in its absence), gene YPR165W (yeast gene YPR165W, ratio of DNA chip fluorescence intensity to that without chemical substance): 1.0
The level of expressed mRNA in the presence of chemical substance/ in its absence, gene YPR184W (energy system protein genes, 2 h culture with the chemical, ratio to control without chemical): 2.5
The level of expressed mRNA in the presence of chemical substance/ in its absence, gene YPR184W (ratio of DNA chip fluorescence intensity to that without chemical substance): 2.5
